The results in this text go back to US6410792B1, “Amide derivatives and methods for using the same as selective neuropeptide Y receptor antagonists” (Bayer Corporation, priority 1997, dated 2002).

For one data set, the target named is T1, Y2 receptor (Homo sapiens, UniProt P49146).
T1 sequence (P49146 1-381): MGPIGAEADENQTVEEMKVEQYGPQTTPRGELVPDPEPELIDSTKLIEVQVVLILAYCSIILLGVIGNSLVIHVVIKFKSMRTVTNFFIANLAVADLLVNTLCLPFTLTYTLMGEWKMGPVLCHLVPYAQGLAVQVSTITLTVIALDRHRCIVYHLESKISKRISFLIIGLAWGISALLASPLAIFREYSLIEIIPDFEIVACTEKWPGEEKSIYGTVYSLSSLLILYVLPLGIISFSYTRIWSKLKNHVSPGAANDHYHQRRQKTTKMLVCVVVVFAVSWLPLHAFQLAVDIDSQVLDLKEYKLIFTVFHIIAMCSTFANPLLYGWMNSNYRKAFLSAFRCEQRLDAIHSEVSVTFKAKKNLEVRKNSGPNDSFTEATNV
Kind of data set: Y2 receptor binding assay ([125I]PYY, membrane protein). To be noted: [125I]PYY, membrane protein; read-out: hNPY2 IC50. The method in brief: (§1)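 Filtration binding with membrane protein and drug dilution, 2 h at room temperature with mixing, radioactivity counted by gamma or scintillation. Y2: 25 pM [125I]PYY in Krebs-Ringer bicarbonate pH 7.4 with 0.01% BSA, nonspecific by 1 μM NPY. Y4/PP1: 50 pM [125I]hPP in HEPES-buffered saline pH 7.4 with protease inhibitors and 0.3% BSA, nonspecific by 1 μM hPP.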

The target in another data set is human Y4/PP1 receptor (Homo sapiens, UniProt P50391). Kind of data set: Human Y4/PP1 receptor binding assay ([125I]human PP, membrane protein). To be noted: [125I]human PP, membrane protein; read-out: hNPY4 IC50. The method in brief:
as §1

For a further data set, the target named is T2, Human NPY5 receptor (Homo sapiens, UniProt Q15761).
T2 sequence (Q15761 1-445): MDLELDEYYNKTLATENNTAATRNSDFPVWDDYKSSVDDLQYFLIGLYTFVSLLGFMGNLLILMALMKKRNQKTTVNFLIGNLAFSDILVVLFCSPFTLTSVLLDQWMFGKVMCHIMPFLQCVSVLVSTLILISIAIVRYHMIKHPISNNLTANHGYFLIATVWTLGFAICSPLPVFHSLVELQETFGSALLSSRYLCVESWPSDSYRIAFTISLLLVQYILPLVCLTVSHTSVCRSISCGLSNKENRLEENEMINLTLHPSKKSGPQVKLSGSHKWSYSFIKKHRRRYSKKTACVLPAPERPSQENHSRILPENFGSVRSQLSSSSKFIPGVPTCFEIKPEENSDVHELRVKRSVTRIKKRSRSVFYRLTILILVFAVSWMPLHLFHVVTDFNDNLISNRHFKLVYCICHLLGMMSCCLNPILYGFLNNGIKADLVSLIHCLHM
Kind of data set: Human NPY5 receptor binding assay ([125I]PYY, membrane protein). Summed up:
(§2)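 Radioligand displacement: 75-100 pM [125I]PYY (porcine), membranes, drug dilution; 2 h, RT, mixing; 25 mM Tris pH 7.4 with 0.1% BSA, 0.5 mg/ml bacitracin. NSB 1 μM PYY. Filtration on PEI-treated GF/C, ice-cold buffer wash, gamma or scintillation counting.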

Data set [1] addresses T3, Rat NPY5 receptor (Rattus norvegicus, UniProt Q63634).
T3 sequence (Q63634 1-445): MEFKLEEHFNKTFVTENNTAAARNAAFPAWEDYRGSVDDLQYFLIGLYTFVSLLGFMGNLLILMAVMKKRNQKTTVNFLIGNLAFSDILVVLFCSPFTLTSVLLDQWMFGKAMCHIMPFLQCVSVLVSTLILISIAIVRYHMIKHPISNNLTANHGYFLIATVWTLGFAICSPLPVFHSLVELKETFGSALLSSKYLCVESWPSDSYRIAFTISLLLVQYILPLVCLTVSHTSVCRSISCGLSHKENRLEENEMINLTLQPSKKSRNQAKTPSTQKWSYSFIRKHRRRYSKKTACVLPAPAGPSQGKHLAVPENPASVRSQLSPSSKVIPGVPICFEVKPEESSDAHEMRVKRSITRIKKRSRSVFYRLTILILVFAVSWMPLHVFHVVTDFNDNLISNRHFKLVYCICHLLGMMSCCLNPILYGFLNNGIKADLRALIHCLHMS
Kind of data set: Rat NPY5 receptor binding assay ([125I]PYY, membrane protein). The method in brief: as §2

The target in data set [2] is T3, Rat NPY5 receptor. Kind of data set: Rat NPY5 cyclase assay (in vitro functional assay, forskolin-stimulated adenylate cyclase, cAMP). The data set is classed as cell-based. The note with it: 10 μM, percentage of forskolin-stimulated adenylate cyclase; for activity at 10 µM: 20 min, read-out: rNPY5 % FSAC (10 μM). As to the method:
D. Rat NYP5 Cyclase Assay (In Vitro Functional Assay)
Cells stably expressing the rat NPY5 receptor are resuspended in serum-free DMEM containing 10 mM HEPES (pH 7.4) and 1 mM isobutylmethylxanthine (IBMX). […] forskolin and drug dilution are then added to the cells. After a 20 minute incubation of the samples at 37° C, the assay is stopped by placing the samples in boiling water for 3 minutes. The cAMP produced in each sample is quantitated with a radioimmunoassay kit (NEN DuPont). Data are expressed as a percentage of forskolin-stimulated adenylate cyclase.

A further data set deals with T4, Human NPY1 receptor (Homo sapiens, UniProt P25929).
T4 construct: host or cells: SK-N-MC cells
T4 sequence (P25929 1-384): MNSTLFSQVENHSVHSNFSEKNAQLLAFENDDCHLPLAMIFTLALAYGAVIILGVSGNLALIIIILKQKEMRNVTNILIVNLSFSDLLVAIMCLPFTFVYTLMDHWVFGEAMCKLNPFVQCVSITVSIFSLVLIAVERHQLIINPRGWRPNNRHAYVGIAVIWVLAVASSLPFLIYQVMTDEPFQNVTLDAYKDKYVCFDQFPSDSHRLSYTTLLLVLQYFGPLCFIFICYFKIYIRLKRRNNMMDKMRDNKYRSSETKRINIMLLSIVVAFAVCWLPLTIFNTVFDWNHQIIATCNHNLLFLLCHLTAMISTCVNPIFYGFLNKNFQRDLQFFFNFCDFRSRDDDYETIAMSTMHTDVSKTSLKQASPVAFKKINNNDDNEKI
Kind of data set: Human NPY1 receptor binding assay ([125I]PYY, SK-N-MC cells). To be noted: [125I]PYY, SK-N-MC cells; read-out: hNPYI IC50. Summed up:
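Whole-cell competition with ~50 pM [125I]PYY on SK-N-MC monolayers, 3 h at room temperature after 30 min preincubation in HEPES-buffered (pH 7.3) serum-free DMEM containing protease inhibitors. Gamma counting of cell lysates; 1 μM NPY gave nonspecific binding.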

[3] abbreviates: [125I]PYY, read-out: hNPY5 IC50.
Setting [4] is: [125I]PYY, read-out: rNPY5 IC50.

SMILES strings stand for the structures. Where a name gives a salt, the structure may show the parent alone. Read-outs that look alike come from different tables or passages of the source.

Sequence of human Y4/PP1 receptor (P50391 whole entry): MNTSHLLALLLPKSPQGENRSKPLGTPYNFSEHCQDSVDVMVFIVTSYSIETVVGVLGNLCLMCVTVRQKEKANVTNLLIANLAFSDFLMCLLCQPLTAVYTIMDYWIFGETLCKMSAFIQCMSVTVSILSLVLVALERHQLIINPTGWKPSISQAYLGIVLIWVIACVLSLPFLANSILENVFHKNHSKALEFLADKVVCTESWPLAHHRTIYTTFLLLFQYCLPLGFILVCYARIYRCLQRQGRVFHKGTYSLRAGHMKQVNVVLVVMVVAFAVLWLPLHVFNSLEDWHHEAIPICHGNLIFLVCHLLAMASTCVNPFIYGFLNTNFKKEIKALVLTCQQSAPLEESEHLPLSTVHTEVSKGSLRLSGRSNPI

Broadly, the IC50 is the concentration that inhibits the measured activity by half. By melting point is commonly meant the temperature of the solid-liquid transition. `Cl.O=C(CN1CCC(n2c(=O)[nH]c3ccccc32)CC1)Nc1ccc(C(=O)c2ccccc2)cc1` [Compound 263, N-(4-Benzoyl-phenyl)-2-[4-(2-oxo-2,3-dihydro-benzoimidazol-1-yl)-piperidin-1-yl]-acetamide; hydrochloride] yielded a melting point of 215 to 216 °C. Moreover, on Y2 receptor, the IC50 is more than 5000 nM. In addition, the IC50 at human Y4/PP1 receptor is more than 5000 nM. For the same molecule, the IC50 at Human NPY5 receptor (setting [3]) amounted to 4 nM. Also, on Rat NPY5 receptor [1] (setting [4]), the IC50 was determined as 3 nM. For the same molecule, on Rat NPY5 receptor [2], the activity at 10 µM amounted to 97%.
Take `Cl.O=C(CN1CCC(n2c(=O)[nH]c3ccccc32)CC1)Nc1ccc2c(c1)-c1ccccc1C2=O` [Compound 311, 2-[4-(2-Oxo-2,3-dihydro-benzoimidazol-1-yl)-piperidin-1-yl]-N-(9-oxo-9H-fluoren-3-yl)-acetamide; hydrochloride]: the melting point is 258 °C. Further, at Human NPY5 receptor (setting [3]), the IC50 amounted to 0.47 nM. Moreover, at Rat NPY5 receptor [1] (setting [4]), the IC50 was 0.34 nM. The activity at 10 µM on Rat NPY5 receptor [2] was 95%.
With `Cc1ccc(NC(=O)CN2CCC(n3c(=O)[nH]c4ccccc43)CC2)cc1` [Compound 359, 2-[4-(2-Oxo-2,3-dihydro-benzoimidazol-1-yl)-piperidin-1-yl]-N-p-tolyl-acetamide, reference compound], the IC50 at Human NPY1 receptor is more than 5000 nM; at Y2 receptor, more than 5000 nM; on human Y4/PP1 receptor it was more than 5000 nM; at Human NPY5 receptor (setting [3]), 1300 nM; at Rat NPY5 receptor [1] (setting [4]) it was 1200 nM. Also, at Rat NPY5 receptor [2], the activity at 10 µM turned out to be 104%.
In the case of `CCc1cc(Br)c(NC(=O)CN2CCC(n3c(=O)[nH]c4ccccc43)CC2)c(Br)c1` [Compound 330, N-(2,6-Dibromo-4-ethyl-phenyl)-2-[4-(2-oxo-2,3-dihydrobenzoimidazol-1-yl)-piperidin-1-yl]-acetamide, reference compound], the IC50 was more than 5000 nM at Human NPY1 receptor; more than 5000 nM at Y2 receptor; more than 5000 nM on human Y4/PP1 receptor; 440 nM on Human NPY5 receptor (setting [3]); 260 nM on Rat NPY5 receptor [1] (setting [4]). The activity at 10 µM at Rat NPY5 receptor [2] came out at 99%.
In turn, `Cl.O=C(CN1CCC(n2c(=O)[nH]c3ccccc32)CC1)Nc1ccc(-c2ccc(F)cc2)cc1` [Compound 327, N-(4′-Fluoro-biphenyl-4-yl)-2-[4-(2-oxo-2,3-dihydro-benzoimidazol-1-yl)-piperidin-1-yl]-acetamide; hydrochloride] registered a melting point of 289 °C. Besides, the IC50 on Human NPY5 receptor (setting [3]) was 110 nM. In addition, the IC50 on Rat NPY5 receptor [1] (setting [4]) is 60 nM. Moreover, the “rNPY5 % FSAC (10 μM)” value on Rat NPY5 receptor [2] is recorded as 101%.
With `O=C(CN1CCN(c2ccccc2Cl)CC1)Nc1ccc(C2CCCCC2)cc1.O=C(O)C(=O)O` [Compound 299], the IC50 is more than 5000 nM on Human NPY1 receptor; more than 5000 nM at Y2 receptor; more than 5000 nM on human Y4/PP1 receptor; 140 nM at Human NPY5 receptor (setting [3]); 160 nM on Rat NPY5 receptor [1] (setting [4]). The “rNPY5 % FSAC (10 μM)” value at Rat NPY5 receptor [2] is 103%.
On to `CC(=O)c1ccc(NC(=O)CN2CCC(n3c(=O)[nH]c4ccccc43)CC2)cc1` [Compound 354, N-(4-Acetyl-phenyl)-2-[4-(2-oxo-2,3-dihydro-benzoimidazol-1-yl)-piperidin-1-yl]-acetamide, reference compound], for which the IC50 is more than 5000 nM at Human NPY1 receptor; more than 5000 nM at Y2 receptor; more than 5000 nM at human Y4/PP1 receptor; 143 nM at Human NPY5 receptor (setting [3]); 136 nM at Rat NPY5 receptor [1] (setting [4]). Moreover, the activity at 10 µM at Rat NPY5 receptor [2] was determined as 98%.
On to `CCOc1ccc(NC(=O)CN2CCC(n3c(=O)[nH]c4ccccc43)CC2)c2ccccc12` [Compound 346, N-(4-Ethoxy-naphthalen-1-yl)-2-[4-(2-oxo-2,3-dihydro-benzoimidazol-1-yl)-piperidin-1-yl]-acetamide, reference compound], for which the IC50 on Human NPY1 receptor is more than 5000 nM; at Y2 receptor, more than 5000 nM; on human Y4/PP1 receptor, more than 5000 nM; at Human NPY5 receptor (setting [3]), 81 nM; on Rat NPY5 receptor [1] (setting [4]) it was 63 nM. Further, on Rat NPY5 receptor [2], the activity at 10 µM turned out to be 105%.
With `NC(=O)C1CCCN1CC(=O)Nc1ccc(C2CCCCC2)cc1` (centres unmarked) [Compound 297, 1-[(4-Cyclohexyl-phenylcarbamoyl)-methyl]-pyrrolidin-2-carboxylic acid amide; hydrochloride], the IC50 was more than 5000 nM on Human NPY1 receptor; more than 5000 nM on Y2 receptor; more than 5000 nM at human Y4/PP1 receptor; 32 nM on Human NPY5 receptor (setting [3]); 45 nM on Rat NPY5 receptor [1] (setting [4]). Further, the activity at 10 µM on Rat NPY5 receptor [2] turned out to be 103%.
As to `O=C(CN1CCC(n2c(=O)[nH]c3ccccc32)CC1)Nc1ccc(O)cc1` [Compound 345, N-(4-Hydroxy-phenyl)-2-[4-(2-oxo-2,3-dihydro-benzoimidazol-1-yl)-piperidin-1-yl]-acetamide, reference compound], the IC50 on Human NPY1 receptor was more than 5000 nM; on Y2 receptor, more than 5000 nM; at human Y4/PP1 receptor, more than 5000 nM; on Human NPY5 receptor (setting [3]) it was 2900 nM; at Rat NPY5 receptor [1] (setting [4]), 3300 nM. Moreover, at Rat NPY5 receptor [2], the activity at 10 µM was determined as 93%.
Consider `O=C(CN1CCC(n2c(=O)[nH]c3ccccc32)CC1)Nc1ccc(Br)c(Cl)c1` [Compound 342, N-(4-Bromo-3-chloro-phenyl)-2-[4-(2-oxo-2,3-dihydro-benzoimidazol-1-yl)-piperidin-1-yl]-acetamide, reference compound], for which the IC50 at Human NPY1 receptor was more than 5000 nM; on Y2 receptor, more than 5000 nM; at human Y4/PP1 receptor it was more than 5000 nM; at Human NPY5 receptor (setting [3]), 276 nM; at Rat NPY5 receptor [1] (setting [4]) it was 370 nM. In addition, the activity at 10 µM at Rat NPY5 receptor [2] came to 105%.
Regarding `Cc1ccc(C2(O)CCN(CC(=O)Nc3ccc(C4CCCCC4)cc3)CC2)cc1` [Compound 298, N-(4-Cyclohexyl-phenyl)-2-(4-hydroxy-4-p-tolyl-piperidin-1-yl)-acetamide; hydrochloride], the IC50 was more than 5000 nM at Human NPY1 receptor; more than 5000 nM on Y2 receptor; more than 5000 nM on human Y4/PP1 receptor; 30 nM on Human NPY5 receptor (hNPY5 IC50, [125I]PYY); 44 nM on Rat NPY5 receptor [1] (rNPY5 IC50, [125I]PYY). Moreover, the activity at 10 µM at Rat NPY5 receptor [2] was 103%.
